target: NLRP3 inflammasome (Homo sapiens (Human), UniProt Q96P20); assay: Evaluation of NLRP3 inflammasome inhibitory activity (inhibition of IL-1β production in LPS/Nigericin-stimulated THP1-Null cells); type: cell-based; details: IL-1β production in THP1-Null cells, PMA, LPS 1 μg/mL, Nigericin 7.5 μmol/L, AlphaLISA
Experimental: The NLRP3 inflammasome inhibitory activity of test compounds were evaluated on the basis of the inhibitory activity of the IL-1β production in THP1-Null cells (Product Number: thp-null, InvivoGen). […] The supernatant of the culture was removed, and thereto was added media for assay (25 μL/well) containing 1 μg/mL Lipopolysaccharides (Product Number: L2654, Sigma-Aldrich (registered trademark)). […] The supernatant of the culture was removed. […] A solution containing a test compound (20 μL/well) was added to test compound-setting wells. […] The supernatant of the culture was cryonically stored (set at −20° C.) until measurement of IL-1β.
The amount of IL-1β in the culture supernatant was quantitated with AlphaLISA(registered trademark) Human IL-1β Detection Kit (Product Number: AL220C, Perkin Elmer). Fluorescence intensity was measured with a microplate reader EnSpier (Model number: 2300-00J, Perkin Elmer) or EnSight(Model number: HH34000000, Perkin Elmer) according to procedure manuals attached thereto. Inhibition rates of the test compound-setting wells were calculated on the basis of 100% for the blank-setting wells and 0% for the control-setting wells.

Chain of NLRP3 inflammasome (Q96P20 whole entry): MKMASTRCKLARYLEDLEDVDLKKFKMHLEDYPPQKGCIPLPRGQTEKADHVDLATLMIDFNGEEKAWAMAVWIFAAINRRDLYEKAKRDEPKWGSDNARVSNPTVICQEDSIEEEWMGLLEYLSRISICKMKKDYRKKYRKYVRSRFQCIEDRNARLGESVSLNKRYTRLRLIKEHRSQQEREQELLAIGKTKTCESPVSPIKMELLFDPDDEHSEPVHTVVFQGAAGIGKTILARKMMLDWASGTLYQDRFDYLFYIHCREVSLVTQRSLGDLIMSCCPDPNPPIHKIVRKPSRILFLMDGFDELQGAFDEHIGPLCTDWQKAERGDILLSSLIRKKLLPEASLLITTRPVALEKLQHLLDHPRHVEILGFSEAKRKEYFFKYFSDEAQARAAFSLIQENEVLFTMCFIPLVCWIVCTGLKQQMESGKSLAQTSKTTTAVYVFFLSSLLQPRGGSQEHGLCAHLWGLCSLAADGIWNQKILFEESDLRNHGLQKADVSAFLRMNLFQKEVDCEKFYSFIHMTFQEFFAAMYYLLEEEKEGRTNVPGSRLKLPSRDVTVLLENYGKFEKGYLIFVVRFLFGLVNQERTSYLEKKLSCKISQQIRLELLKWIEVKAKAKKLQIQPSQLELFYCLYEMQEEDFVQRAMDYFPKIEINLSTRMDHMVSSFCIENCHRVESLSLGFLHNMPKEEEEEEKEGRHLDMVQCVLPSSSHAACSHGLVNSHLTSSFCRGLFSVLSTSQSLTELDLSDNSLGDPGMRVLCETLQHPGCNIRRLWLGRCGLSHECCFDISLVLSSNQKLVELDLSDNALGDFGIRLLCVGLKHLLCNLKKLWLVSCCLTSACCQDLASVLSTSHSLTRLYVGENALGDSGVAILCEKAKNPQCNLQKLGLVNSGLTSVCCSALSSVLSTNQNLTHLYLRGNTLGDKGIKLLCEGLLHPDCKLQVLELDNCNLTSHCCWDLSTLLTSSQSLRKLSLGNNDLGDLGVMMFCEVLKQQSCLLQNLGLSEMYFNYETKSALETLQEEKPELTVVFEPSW

Structure (SMILES)	IC50
Cc1cc(C2CC2)cc(C)c1-n1cc2c(=O)[nH]c(N3C[C@H]4C[C@@H]3CO4)nc2n1 [Example 209, 6-((1R,4R)-2-oxa-5-azabicyclo[2.2.1]heptan-5-yl)-2-(4-cyclopropyl-2,6-dimethylphenyl)-2,5-dihydro-4H-pyrazolo[3,4-d]pyrimidin-4-one]	5.1 nM
CCc1ccc(-n2cc3c(=O)[nH]c(N4CCCC4)nc3n2)c(C)c1 [Example 120]	19 nM
COC[C@@H]1CCCN1c1nc2nn(-c3ccccc3C)cc2c(=O)[nH]1 [Example 42]	4200 nM
Cc1cc(C2CCC2)cc(C)c1-n1cc2c(=O)[nH]c(N3CCOCC3)nc2n1 [Example 270]	83 nM
Cc1cc(Br)cc(C)c1-n1cc2c(=O)[nH]c(NCC(F)(F)F)nc2n1 [Example 266]	14 nM
Cc1ccccc1-n1cc2c(=O)[nH]c(N3CCC3(C)C)nc2n1 [Example 39]	7100 nM
COc1cc(Cl)ccc1-n1cc2c(=O)[nH]c(N3CCCC3)nc2n1 [Example 205]	32 nM
O=c1[nH]c(N2CCOCC2)nc2nn(-c3c(O)cc(C(F)(F)F)cc3Cl)cc12 [Example 257]	69 nM
Cc1cc(C(F)(F)F)cc(C)c1-n1cc2c(=O)[nH]c(N3CCOCCO3)nc2n1 [Example 357]	28 nM
CN(C)c1nc2nn(-c3ccccc3Cl)cc2c(=O)[nH]1 [Example 4]	1700 nM
O=c1[nH]c(N2CCCC2)nc2nn(-c3ccc(C(F)(F)F)cc3Cl)cc12 [Example 86]	2.9 nM
O=c1[nH]c(N2CCOCC2)nc2nn(-c3ccc(OC(F)F)cc3C(F)(F)F)cc12 [Example 325]	31 nM
CNc1nc2nn(-c3ccccc3C)cc2c(=O)[nH]1 [Example 36]	1700 nM
Cc1cc(Br)ccc1-n1cc2c(=O)[nH]c(N3CCN(C4CC4)C(=O)C3)nc2n1 [Example 152]	77 nM
CONc1nc2nn(-c3c(C)cc(Br)cc3C)cc2c(=O)[nH]1 [Example 336]	28 nM
COC1CCN(c2nc3nn(-c4c(C)cc(C)cc4C)cc3c(=O)[nH]2)CC1 [Example 106]	96 nM
Cc1cc(Br)cc(C)c1-n1cc2c(=O)[nH]c(N3C4CC3CN(S(C)(=O)=O)C4)nc2n1 [Example 221]	25 nM
O=c1[nH]c(N2CCCC2)nc2nn(-c3ccccc3Cl)cc12 [Example 1]	340 nM
Cc1ccccc1-n1cc2c(=O)[nH]c(NCC(C)C)nc2n1 [Example 35]	1700 nM
CCCCNc1nc2nn(-c3ccccc3C)cc2c(=O)[nH]1 [Example 61]	680 nM
CC(C)Cc1ccccc1-n1cc2c(=O)[nH]c(N3CCOCC3)nc2n1 [Example 322]	510 nM
Cc1cc(C2CC2)ccc1-n1cc2c(=O)[nH]c(N3CCOCC3)nc2n1 [Example 242]	24 nM
O=c1[nH]c(N2CCOCCO2)nc2nn(-c3ccc(C4CC4)cc3C(F)(F)F)cc12 [Example 356]	23 nM
Cc1cc(Br)cc(C)c1-n1cc2c(=O)[nH]c(N3CCC(C#N)C3)nc2n1 (racemic) [Example 323]	6.4 nM
Cc1nn(C(C)C)c(C)c1-n1cc2c(=O)[nH]c(N3CCCC3)nc2n1 [Example 343, 2-(1-isopropyl-3,5-dimethyl-1H-pyrazol-4-yl)-6-(pyrrolidin-1-yl)-2,5-dihydro-4H-pyrazolo[3,4-d]pyrimidin-4-one]	750 nM
Cc1cc(C)c(-n2cc3c(=O)[nH]c(N4CCC5(CC4)COC5)nc3n2)c(C)c1 [Example 118]	44 nM

Structure (SMILES)	IC50
COc1ccc(-n2cc3c(=O)[nH]c(N4CCCC4)nc3n2)c(C)c1 [Example 171]	29 nM
Cc1cc(C2CC2)cc(C)c1-n1cc2c(=O)[nH]c(N3CCOCCO3)nc2n1 [Example 349, 2-(4-cyclopropyl-2,6-dimethylphenyl)-6-(1,5,2-dioxazepan-2-yl)-2,5-dihydro-4H-pyrazolo[3,4-d]pyrimidin-4-one]	19 nM
Cc1cc(Cl)cc(C=O)c1-n1cc2c(=O)[nH]c(N3CCOCC3)nc2n1 [Example 160]	36 nM
COc1nc(N2CCCC2)nc2nn(-c3ccccc3C)cc12 [Example 13]	7700 nM
Cc1cc(OC(F)F)cc(C)c1-n1cc2c(=O)[nH]c(N3CCOCC3)nc2n1 [Example 298, 2-(4-(difluoromethoxy)-2,6-dimethylphenyl)-6-morpholino-2,5-dihydro-4H-pyrazolo[3,4-d]pyrimidin-4-one]	27 nM
O=c1[nH]c(N2CCOCC2)nc2nn(-c3ccccc3C(F)(F)F)cc12 [Example 25]	950 nM
O=c1[nH]c(N2CCCC2)nc2nn(-c3ccccc3OC(F)(F)F)cc12 [Example 9]	1200 nM
Cc1cc(C2CC2)cc(Cl)c1-n1cc2c(=O)[nH]c(N3C[C@@H]4C[C@H]3CO4)nc2n1 [Example 288]	10 nM
O=c1[nH]c(N2CCOCCO2)nc2nn(-c3ccc(Br)cc3C(F)(F)F)cc12 [Example 355]	43 nM
COCCNc1nc2nn(-c3ccc(C)cc3C)cc2c(=O)[nH]1 [Example 60]	240 nM
Cc1cc(C(F)(F)F)cc(C)c1-n1cc2c(=O)[nH]c(N3CCOCC3)nc2n1 [Example 237]	23 nM
Cc1cc(Br)cnc1-n1cc2c(=O)[nH]c(N3CCCC3)nc2n1 [Example 77]	49 nM
Cc1cc(Br)cc(C)c1-n1cc2c(=O)[nH]c(N3CCOCCO3)nc2n1 [Example 339]	37 nM
Cc1cc(C2CC2)cc(C)c1-n1cc2c(=O)[nH]c(N3CCC(C#N)C3)nc2n1 (racemic) [Example 324]	6.2 nM
Cc1cc(Cl)ccc1-n1cc2c(=O)[nH]c(N3CCCC3)nc2n1 [Example 95]	5.2 nM
COC1CN(c2nc3nn(-c4c(C)cccc4C)cc3c(=O)[nH]2)C1 [Example 50]	1200 nM
Cc1cc(Cl)ccc1-n1cc2c(=O)[nH]c(N3CCCOCC3)nc2n1 [Example 165]	29 nM
COCCN(C)c1nc2nn(-c3c(C)cc(Br)cc3C)cc2c(=O)[nH]1 [Example 337]	47 nM
O=c1[nH]c(N2CCOCC2)nc2nn(-c3ccc(C4CC4)cc3C(F)(F)F)cc12 [Example 177]	5.6 nM
Cc1cc(C)c(-n2cc3c(=O)[nH]c(N4CCC(O)CC4)nc3n2)c(C)c1 [Example 105]	64 nM
O=c1[nH]c(N2CCCC2)nc2nn(-c3ncc(C(F)(F)F)cc3Cl)cc12 [Example 157]	33 nM
Cc1cc(C2CC2)cc(F)c1-n1cc2c(=O)[nH]c(N3C[C@H]4C[C@@H]3CO4)nc2n1 [Example 299]	17 nM
Cc1cc(C(C)C)cc(C)c1-n1cc2c(=O)[nH]c(N3CCOCC3)nc2n1 [Example 301]	21 nM
Cc1cc(Br)cc(C)c1-n1cc2c(=O)[nH]c(NC3COC3)nc2n1 [Example 274]	580 nM
CO[C@@H]1CCN(c2nc3nn(-c4c(C)cc(Br)cc4C)cc3c(=O)[nH]2)C1 [Example 316]	6.4 nM
Cc1cc(N2CCC2)cc(C)c1-n1cc2c(=O)[nH]c(N3CCOCC3)nc2n1 [Example 327]	80 nM

same assay, conditions: IL-1β production in THP1-Null cells; test compound 0.024 μM

Structure (SMILES)	inhibition at 0.024 µM
COc1nc(N2CCOCC2)nc2nn(-c3ccc(Br)cc3C)cc12 [Example 89, 4-(2-(4-bromo-2-methylphenyl)-4-methoxy-2H-pyrazolo[3,4-d]pyrimidin-6-yl)morpholine]	77%

same assay, conditions: IL-1β production in THP1-Null cells; test compound 24 μM

Structure (SMILES)	inhibition at 24 µM
Cc1ccccc1-n1cc2c(=O)[nH]c(Nc3c4c(cc5c3CCC5)CCC4)nc2n1 [Example 44]	21%
